From US9169260B2 (MERCK SHARP & DOHME CORP., priority 2011, dated 2015)

Target: GST tagged IRAK-4 (Homo sapiens (Human), UniProt Q9NWZ3)
Test: IRAK-4 Kinase Assay (IMAP fluorescence polarization)
Type: biochemical
Settings: 100 μM ATP, 30 minutes at 25° C.
Method in brief: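 Activity was read by IMAP fluorescence polarization, where phosphopeptide binding to M(III) nanoparticles raises FP. The 30-minute, 25° C reaction used 100 μM ATP, 100 nM RP7030 substrate and 0.5 nM GST-IRAK-4 in pH 7.2 Tris buffer with MgCl2, DTT and Tween 20.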

Chain of GST tagged IRAK-4 (Q9NWZ3 whole entry): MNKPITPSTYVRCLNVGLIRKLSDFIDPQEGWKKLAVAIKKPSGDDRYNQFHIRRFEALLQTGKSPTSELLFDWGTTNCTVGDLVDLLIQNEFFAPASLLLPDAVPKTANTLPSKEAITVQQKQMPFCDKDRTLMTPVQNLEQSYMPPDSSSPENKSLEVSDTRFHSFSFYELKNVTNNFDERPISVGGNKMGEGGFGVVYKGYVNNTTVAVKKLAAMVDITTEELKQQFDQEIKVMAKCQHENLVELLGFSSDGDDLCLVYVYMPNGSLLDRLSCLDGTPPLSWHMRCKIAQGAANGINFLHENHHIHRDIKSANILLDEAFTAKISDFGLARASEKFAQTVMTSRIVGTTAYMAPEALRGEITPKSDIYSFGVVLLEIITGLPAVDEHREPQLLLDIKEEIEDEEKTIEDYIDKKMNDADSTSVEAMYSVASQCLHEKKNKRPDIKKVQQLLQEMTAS

| IC50 [µM] | IC50 (μM) [µM] | SMILES |
| --- | --- | --- |
| < 0.1 |  | CCCC(C)N1CCC(c2cc(NC(=O)c3cnn4cccnc34)n(-c3ccc(C)cc3)n2)CC1 (stereo not drawn) [Example 210] |
|  | < 1 | CC(=O)N1CCC(c2cc(NC(=O)c3cnn4cccnc34)n(-c3ccc(C)cc3)n2)CC1 [Example 31, N-(3-(1-acetylpiperidin-4-yl)-1-(p-tolyl)-1H-pyrazol-5-yl)pyrazolo[1,5-a]pyrimidine-3-carboxamide] |
|  | < 1 | Cc1cccc(-n2nc(C3CCN(S(=O)(=O)C4CC4)CC3)cc2NC(=O)c2cnn3cccnc23)c1 [Example 21, N-(3-(1-(cyclopropylsulfonyl)piperidin-4-yl)-1-(m-tolyl)-1H-pyrazol-5-yl)pyrazolo[1,5-a]pyrimidine-3-carboxamide] |
| < 0.1 |  | CC(C)(CN)c1ccc(-n2nc(C3CCN(S(C)(=O)=O)CC3)cc2NC(=O)c2cnn3cccnc23)nc1 [Example 158, N-(1-(5-(1-amino-2-methylpropan-2-yl)pyridin-2-yl)-3-(1-(methylsulfonyl)piperidin-4-yl)-1H-pyrazol-5-yl)pyrazolo[1,5-a]pyrimidine-3-carboxamide] |
| < 0.1 |  | Cc1ccc(-n2nc(-c3ccc(C(=O)N(C)C)cc3)cc2NC(=O)c2cnn3cccnc23)cc1 [Example 349, N-{3-[4-(dimethylcarbamoyl)phenyl]-1-(4-methylphenyl)-1H-pyrazol-5-yl}pyrazolo[1,5-a]pyrimidine-3-carboxamide] |
|  | < 1 | Cc1ccc(-n2nc(C3CCN(C4CN(S(=O)(=O)C(C)C)C4)CC3)cc2NC(=O)c2cnn3cccnc23)cc1 [Example 246, N-[3-(1-{1-[(1-methylethyl)sulfonyl]azetidin-3-yl}piperidin-4-yl)-1-(4-methylphenyl)-1H-pyrazol-5-yl]pyrazolo[1,5-a]pyrimidine-3-carboxamide] |
| < 0.1 |  | CCCN1CCC(c2cc(NC(=O)c3cnn4cccnc34)n(-c3ccc(C)cc3)n2)CC1 [Example 220, N-[1-(4-methylphenyl)-3-(1-propylpiperidin-4-yl)-1H-pyrazol-5-yl]pyrazolo[1,5-a]pyrimidine-3-carboxamide] |
| < 0.1 |  | CNS(=O)(=O)c1ccc(-c2cc(NC(=O)c3cnn4cc(Br)cnc34)n(-c3ccc(C)cn3)n2)cc1 [Example 194, 6-bromo-N-(1-(5-methylpyridin-2-yl)-3-(4-(N-methylsulfamoyl)phenyl)-1H-pyrazol-5-yl)pyrazolo[1,5-a]pyrimidine-3-carboxamide] |
|  | < 1 | Cc1ccc(-n2nc(-c3cnn(C)c3)cc2NC(=O)c2cnn3cccnc23)cc1 [Example 326, N-[1′-methyl-1-(4-methylphenyl)-1H,1′H-3,4′-bipyrazol-5-]pyrazolo[1,5-a]pyrimidine-3-carboxamide] |
| < 0.1 |  | Cc1ccc(-n2nc(N3CCN(C)CC3)cc2NC(=O)c2cnn3cccnc23)nc1 [Example 197, N-(3-(4-methylpiperazin-1-yl)-1-(5-methylpyridin-2-yl)-1H-pyrazol-5-yl)pyrazolo[1,5-a]pyrimidine-3-carboxamide] |

The remaining lines, values behind:

| SMILES | IC50 [µM] | IC50 (μM) [µM] |
| --- | --- | --- |
| Cc1ccc(-n2nc(C3CCN(C4CCOCC4)CC3)cc2NC(=O)c2cnn3cc(Br)cnc23)cc1 [Example 110, 6-bromo-N-(3-(1-(tetrahydro-2H-pyran-4-yl)piperidin-4-yl)-1-(p-tolyl)-1H-pyrazol-5-yl)pyrazolo[1,5-a]pyrimidine-3-carboxamide] | < 0.1 |  |
| Cc1ccccc1-n1nc(C2CCNCC2)cc1NC(=O)c1cnn2cccnc12 [Example 14, N-(3-(piperidin-4-yl)-1-(o-tolyl)-1H-pyrazol-5-yl)pyrazolo[1,5-a]pyrimidine-3-carboxamide] |  | > 1 |
| Cc1ccc(-n2nc(C3CCCNC3)cc2NC(=O)c2cnn3cccnc23)cc1 (stereo not drawn) [Example 42, N-(3-(piperidin-3-yl)-1-(p-tolyl)-1H-pyrazol-5-yl)pyrazolo[1,5-a]pyrimidine-3-carboxamide] |  | < 1 |
| Cc1cc(F)ccc1-n1nc(C2CCN(C(C)C)CC2)cc1NC(=O)c1cnn2cccnc12 [Example 69, N-(1-(4-fluoro-2-methylphenyl)-3-(1-isopropylpiperidin-4-yl)-1H-pyrazol-5-yl)pyrazolo[1,5-a]pyrimidine-3-carboxamide] |  | < 1 |
| Cc1ccc(-n2nc(C3CCN(C4CCC(C(F)(F)F)CC4)CC3)cc2NC(=O)c2cnn3cccnc23)nc1 (stereo not drawn) [Example 271, N-[1-(5-methylpyridin-2-yl)-3-{1-[4-(trifluoromethyl)cyclohexyl]piperidin-4-yl}-1H-pyrazol-5-yl]pyrazolo[1,5-a]pyrimidine-3-carboxamide] | < 0.1 |  |
| Cc1ccc(-n2nc(C3CCN(C4CCC(NS(C)(=O)=O)CC4)CC3)cc2NC(=O)c2cnn3cccnc23)nc1 (stereo not drawn) [Example 263, N-[1-(5-methylpyridin-2-yl)-3-(1-{4-[(methylsulfonyl)amino]cyclohexyl]piperidin-4-yl)-1H-pyrazol-5-yl}pyrazolo[1,5-a]pyrimidine-3-carboxamide] | < 0.1 |  |
| Cc1ccc(-n2nc(-c3ccc(CN4CCN(C)CC4)cc3)cc2NC(=O)c2cnn3cccnc23)cc1 [Example 144] | < 0.1 |  |
| Cc1ccc(-n2nc(C3CCN(C4CCC5CC54)CC3)cc2NC(=O)c2cnn3cccnc23)cc1 (stereo not drawn) [Example 254, N-[3-(1-bicyclo[3.1.0]hex-2-ylpiperidin-4-yl)-1-(4-methylphenyl)-1H-pyrazol-5-yl]pyrazolo[1,5-a]pyrimidine-3-carboxamide] | < 0.1 |  |
| Cc1ccc(-n2nc(C3CCNCC3)cc2NC(=O)c2cnn3cccnc23)c(Cl)c1 [Example 65, N-(1-(2-chloro-4-methylphenyl)-3-(piperidin-4-yl)-1H-pyrazol-5-yl)pyrazolo[1,5-a]pyrimidine-3-carboxamide] |  | < 1 |
| CN1CCC(c2cc(NC(=O)c3cnn4cccnc34)n(-c3ccc(F)cc3F)n2)CC1 [Example 48, N-(1-(2,4-difluorophenyl)-3-(1-methylpiperidin-4-yl)-1H-pyrazol-5-yl)pyrazolo[1,5-a]pyrimidine-3-carboxamide] |  | < 1 |
| Cc1ccc(-n2nc(C3CCN(C4CN(C(=O)OC(C)(C)C)C4)CC3)cc2NC(=O)c2cnn3cccnc23)cc1 [Example 261, tert-butyl 3-(4-{1-(4-methylphenyl)-5-[(pyrazolo[1,5-a]pyrimidin-3-ylcarbonyl)amino]-1H-pyrazol-3-yl}piperidin-1-yl)azetidine-1-carboxylate] |  | < 1 |
| Cc1ccc(-n2nc(C3CCN(S(=O)(=O)c4ccc5ccccc5c4)CC3)cc2NC(=O)c2cnn3cccnc23)cc1 [Example 377, N-{1-(4-methylphenyl)-3-[1-(naphthalen-2-ylsulfonyl)piperidin-4-yl]-1H-pyrazol-5-yl}pyrazolo[1,5-a]pyrimidine-3-carboxamide] |  | > 1 |
| Cc1ccc(-n2nc(C3CCN(C(C)c4nccs4)CC3)cc2NC(=O)c2cnn3cccnc23)cc1 (stereo not drawn) [Example 217, N-[1-(4-methylphenyl)-3-{1-[1-(1,3-thiazol-2-yl)ethyl]piperidin-4-yl}-1H-pyrazol-5-yl]pyrazolo[1,5-a]pyrimidine-3-carboxamide] |  | < 1 |
| Cc1ccc(-n2nc(C3CN(Cc4cn[nH]c4)C3)cc2NC(=O)c2cnn3cccnc23)cc1 [Example 305, N-{1-(4-methylphenyl)-3-[1-(1H-pyrazol-4-ylmethyl)azetidin-3-yl]-1H-pyrazol-5-yl}pyrazolo[1,5-a]pyrimidine-3-carboxamide] | < 0.1 |  |
